Test results as given in ChEMBL document CHEMBL1156261, “Evaluation of substituted N,N'-diarylsulfonamides as activators of the tumor cell specific M2 isoform of pyruvate kinase” (J Med Chem, 2010).
The source made the active and inactive calls. No rule for the calls is given here.

Target: Pyruvate kinase (Leishmania mexicana) (UniProt Q27686)
Experiment: Activation of Leishmania mexicana pyruvate kinase by quantitative high throughput screening assay

SMILES	Activity
O=S(=O)(c1ccc2c(c1)OCCO2)N1CCN(S(=O)(=O)c2ccc(F)cc2F)CC1	inactive
O=C1CN(S(=O)(=O)c2ccc3c(c2)OCCO3)CCN1S(=O)(=O)c1c(F)cccc1F	inactive
C[C@@H]1CN(S(=O)(=O)c2c(F)cccc2F)CCN1S(=O)(=O)c1ccc2c(c1)OCCO2	inactive
O=C(c1ccc2c(c1)OCCO2)N1CCN(S(=O)(=O)c2c(F)cccc2F)CC1	inactive
Nc1cccc(S(=O)(=O)N2CCN(S(=O)(=O)c3c(F)cccc3F)CC2)c1	inactive
O=S(=O)(c1ccc2c(c1)OCO2)N1CCN(S(=O)(=O)c2c(F)cccc2F)CC1	inactive
O=S(=O)(NCC1CN(S(=O)(=O)c2ccc3c(c2)OCCO3)C1)c1c(F)cccc1F	inactive
O=S(=O)(NCCCNS(=O)(=O)c1c(F)cccc1F)c1ccc2c(c1)OCCO2	inactive
O=S(=O)(c1cccc(C(F)(F)F)c1)N1CCN(S(=O)(=O)c2ccc3c(c2)OCCO3)CC1	inactive
O=S(=O)(c1ccc2ccccc2c1)N1CCN(S(=O)(=O)c2c(F)cccc2F)CC1	inactive
O=S(=O)(N[C@H]1CC[C@H](NS(=O)(=O)c2c(F)cccc2F)CC1)c1ccc2c(c1)OCCO2	inactive
Nc1cccc(S(=O)(=O)N2CCN(S(=O)(=O)c3ccc4c(c3)OCCO4)CC2)c1	inactive
O=S(=O)(NC1CCN(S(=O)(=O)c2c(F)cccc2F)CC1)c1ccc2c(c1)OCCO2	inactive
O=S(=O)(c1c(F)cccc1F)C1CCN(S(=O)(=O)c2ccc3c(c2)OCCO3)CC1	inactive
O=S(=O)(c1ccc2c(c1)OCCO2)N1CCN(S(=O)(=O)c2c(F)ccc(O)c2F)CC1	inactive
COc1ccc(S(=O)(=O)N2CCN(S(=O)(=O)c3ccc(OC)cc3)CC2)cc1	inactive
Nc1cccc(S(=O)(=O)N2CCCN(S(=O)(=O)c3ccc4c(c3)OCCO4)CC2)c1	inactive
O=S(=O)(N[C@H]1CC[C@@H](NS(=O)(=O)c2c(F)cccc2F)CC1)c1ccc2c(c1)OCCO2	inactive
C[C@H]1CN(S(=O)(=O)c2c(F)cccc2F)CCN1S(=O)(=O)c1ccc2c(c1)OCCO2	inactive
O=S(=O)(NCCCCCNS(=O)(=O)c1c(F)cccc1F)c1ccc2c(c1)OCCO2	inactive
N#Cc1ccc(S(=O)(=O)N2CCN(S(=O)(=O)c3ccc4c(c3)OCCO4)CC2)cc1	inactive
O=S(=O)(c1ccc2c(c1)OCCO2)C1CCN(S(=O)(=O)c2c(F)cccc2F)CC1	inactive
O=S(=O)(c1ccc2c(c1)OCCO2)N1CCN(S(=O)(=O)c2ccccc2F)CC1	inactive
O=S(=O)(NCCCCNS(=O)(=O)c1c(F)cccc1F)c1ccc2c(c1)OCCO2	inactive
O=S(=O)(c1ccc2c(c1)OCCO2)N1CCN(S(=O)(=O)c2cccc[n+]2[O-])CC1	inactive
COc1cc(F)c(S(=O)(=O)N2CCCN(S(=O)(=O)c3cccc(N)c3)CC2)c(F)c1	inactive
COc1cccc(S(=O)(=O)N2CCN(S(=O)(=O)c3ccc4c(c3)OCCO4)CC2)c1	inactive

SMILES	Activity
C[C@H]1CN(S(=O)(=O)c2ccc3c(c2)OCCO3)CCN1S(=O)(=O)c1c(F)cccc1F	inactive
O=S(=O)(c1c(F)cccc1F)N1CCN(S(=O)(=O)c2c(F)cccc2F)CC1	inactive
O=S(=O)(c1ccc2c(c1)OCCO2)N1CCCN(S(=O)(=O)c2c(F)cccc2F)CC1	inactive
O=S(=O)(c1ccc2c(c1)OCCO2)N1CCN(S(=O)(=O)c2c(F)cccc2F)CC1	inactive
O=S(=O)(NCCNS(=O)(=O)c1c(F)cccc1F)c1ccc2c(c1)OCCO2	inactive
CC1(C)CCc2cc(S(=O)(=O)N3CCN(S(=O)(=O)c4c(F)cccc4F)CC3)ccc2O1	inactive
Cn1ccc2cc(S(=O)(=O)N3CCN(S(=O)(=O)c4c(F)cccc4F)CC3)ccc21	inactive
O=S(=O)(NC1CCN(S(=O)(=O)c2c(F)cccc2F)C1)c1ccc2c(c1)OCCO2 (centres undefined)	inactive
O=S(=O)(c1ccc2c(c1)OCCO2)N1CCN(S(=O)(=O)c2cc(F)c(F)cc2F)CC1	inactive
O=S(=O)(c1ccc2c(c1)OCCO2)N1CCN(S(=O)(=O)c2ccc3c(c2)OCCO3)CC1	inactive
O=S(=O)(c1cccc(F)c1)N1CCN(S(=O)(=O)c2ccc3c(c2)OCCO3)CC1	inactive
O=S(=O)(c1ccc2c(c1)OCCCO2)N1CCN(S(=O)(=O)c2c(F)cccc2F)CC1	inactive
O=S(=O)(c1ccc(F)cc1)N1CCN(S(=O)(=O)c2ccc3c(c2)OCCO3)CC1	inactive
COc1cc(F)c(S(=O)(=O)N2CCN(S(=O)(=O)c3cccc(N)c3)CC2)c(F)c1	inactive
C[C@@H]1CN(S(=O)(=O)c2ccc3c(c2)OCCO3)CCN1S(=O)(=O)c1c(F)cccc1F	inactive
COc1ccc(S(=O)(=O)N2CCN(S(=O)(=O)c3ccc4c(c3)OCCO4)CC2)cc1	inactive
COc1ccc(S(=O)(=O)N2CCN(S(=O)(=O)c3c(F)cccc3F)CC2)cc1	inactive
O=S(=O)(c1ccc2c(c1)OCCO2)N1CCN(S(=O)(=O)c2ccccn2)CC1	inactive
O=S(=O)(NCCCCCCNS(=O)(=O)c1c(F)cccc1F)c1ccc2c(c1)OCCO2	inactive
O=S(=O)(NC1CCN(S(=O)(=O)c2ccc3c(c2)OCCO3)C1)c1c(F)cccc1F (centres undefined)	inactive
O=S(=O)(NC1CCN(S(=O)(=O)c2ccc3c(c2)OCCO3)CC1)c1c(F)cccc1F	inactive
O=S(=O)(NCC1CN(S(=O)(=O)c2c(F)cccc2F)C1)c1ccc2c(c1)OCCO2	inactive
O=S(=O)(c1ccc(Cl)cc1)N1CCN(S(=O)(=O)c2ccc3c(c2)OCCO3)CC1	inactive
O=S(=O)(c1ccccc1)N1CCN(S(=O)(=O)c2ccc3c(c2)OCCO3)CC1	inactive
O=C1CN(S(=O)(=O)c2c(F)cccc2F)CCN1S(=O)(=O)c1ccc2c(c1)OCCO2	inactive
O=C(c1c(F)cccc1F)N1CCN(S(=O)(=O)c2ccc3c(c2)OCCO3)CC1	inactive
COc1cc(F)c(S(=O)(=O)N2CCN(S(=O)(=O)c3ccc4c(c3)OCCO4)CC2)c(F)c1	inactive
